# Measured values reported in PMC3707081, “Hypothemicin, a fungal natural product, identifies therapeutic targets in Trypanosoma brucei” (eLife, 2013).
# Target: T1, TbCLK1 (Trypanosoma brucei, UniProt Q382U0)
# T1 construct: gene Tb11.01.4230; full-length, recombinant from E. coli (pET100)
# Test: in vitro kinase assay (γ-32P-ATP, myelin basic protein), […] min pre-incubation with […] ATP; also target engagement in intact parasites by competition with probe […]
# Assay type: biochemical
# T1 sequence (Q382U0 entry or part of it): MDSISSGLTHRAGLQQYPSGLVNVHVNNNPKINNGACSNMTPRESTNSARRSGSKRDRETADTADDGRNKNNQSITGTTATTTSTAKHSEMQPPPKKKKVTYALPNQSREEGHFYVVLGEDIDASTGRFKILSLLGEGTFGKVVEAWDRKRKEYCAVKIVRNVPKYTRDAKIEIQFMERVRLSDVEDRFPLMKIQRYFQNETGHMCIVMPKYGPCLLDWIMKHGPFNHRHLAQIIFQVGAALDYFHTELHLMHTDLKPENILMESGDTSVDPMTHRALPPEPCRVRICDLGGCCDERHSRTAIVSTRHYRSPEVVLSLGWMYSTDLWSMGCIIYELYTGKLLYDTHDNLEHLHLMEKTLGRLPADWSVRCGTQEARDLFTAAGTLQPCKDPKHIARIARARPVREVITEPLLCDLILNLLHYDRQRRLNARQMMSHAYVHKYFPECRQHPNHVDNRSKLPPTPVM
smiles,measurement,value
"COc1cc(O)c2c(c1)[C@H]1O[C@@H]1C[C@H](O)[C@H](O)C(=O)/C=C\C[C@H](C)OC2=O [compound 1, hypothemycin]",IC50,150 nM
